The record followed here is PubChem BioAssay AID977630 (Broad Institute, 2014).

Assay [1] deals with E. coli humanized H38 RFP strain growth, mixed culture, 24 h. Put plainly: growth inhibition of wild-type GFP E. coli, H38-humanized RFP comparator, dose response, H38 mutant RFP vs wild-type GFP, cherry-pick (AID 977630).
Assay [2] has as its system E. coli wild-type GFP growth, mixed culture, 24 h. The assay is described as above.
Setting [3] is: E. coli mixed culture total OD600 growth, 24 h.

Each structure is given as a SMILES string. Records with an inconclusive call do not appear. The source made the active and inactive calls.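 Rule for the calls: active = Normal-ribosome green reporter loss at least double humanized-ribosome red reporter loss, with overall culture growth inhibition under a set limit; inconclusive = no clear call, values can overlap the other calls; inactive = the rest.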

Regarding `CC(C)C[C@H]1COc2cc(Br)ccc2S(=O)(=O)N1`, the half-maximal activity concentration (AC50) in assay [1] is 47 µM; in assay [2], > 100 µM (inactive). Regarding `COc1ccc(NS(=O)(=O)c2ccc(Cl)c(NC(=O)c3ccccc3F)c2)cc1`, the results for the AC50 in assay [1] and in assay [2] were over 100 µM and > 100 µM (inactive), respectively. Compound `Cc1ccc([N+](=O)[O-])c(OCCn2cnc3ccccc32)c1` displayed a concentration at half-maximal activity (AC50) in assay [1] of over 100 µM. As for `COc1ccc(-c2nn(-c3ccccc3C)cc2CNCc2cccnc2)cc1F`, the AC50 in assay [1] and in assay [2] (setting [3]) was over 100 µM throughout.

Regarding `Cc1ccccc1-c1nc(CS(=O)(=O)CC(=O)N2CCCCC2)c(C)o1`, the half-maximal activity concentration (AC50) in assay [1] was over 100 µM; in assay [2] (setting [3]), 45.5 µM. On to `COc1cccc(NC(=O)C2CCC(CNS(=O)(=O)c3cccc4cccnc34)CC2)c1` (configuration not stated), for which the AC50 in assay [1] is over 100 µM. On to `O=C(CCCSc1nc2ccccc2s1)NCc1ccc2c(c1)OCO2`, for which the AC50 in assay [1] was over 100 µM; in assay [2] it was > 100 µM (inactive); in assay [2] (setting [3]), 43.8 µM.

Turning to `COc1cc(OC)cc(C(=O)N[C@H](C(=O)OCC(=O)Nc2ccc(F)c(F)c2F)C(C)C)c1`, the results for the AC50 in assay [1] and in assay [2] were over 100 µM and > 100 µM (inactive), respectively. `CC(C)(C)c1ccc(S(=O)(=O)NCc2ccc(C(=O)NCc3ccccn3)cc2)cc1`: the AC50 in assay [1] was 49.9 µM; in assay [2], > 100 µM (inactive); in assay [2] (setting [3]), over 100 µM. `O=C1NC(CCc2ccccc2)C(=O)N1Cc1cccc2ccccc12` (configuration not stated): the concentration at half-maximal activity (AC50) was 50.1 µM in assay [1], > 100 µM (inactive) in assay [2] and 51.8 µM in assay [2] (setting [3]).

Turning to `CS(=O)(=O)N1CC2CCCN2c2ccc(C(F)(F)F)cc21` (configuration not stated), the concentration at half-maximal activity (AC50) is over 100 µM in assay [1], > 100 µM (inactive) in assay [2] and over 100 µM in assay [2] (setting [3]).

`CS(=O)(=O)c1ccc(Cl)c(NC(=O)COC(=O)c2c(Cl)cccc2Cl)c1`: the AC50 in assay [1] was over 100 µM; in assay [2], > 100 µM (inactive); in assay [2] (setting [3]) it was over 100 µM. Regarding `CC(C)(C)S(=O)(=O)Cc1nc(-c2ccc(Cl)c(Cl)c2)cs1`, the AC50 in assay [1] and in assay [2] (setting [3]) was over 100 µM in each case. As for `CCc1cc2ccc(OC)cc2nc1SCC(=O)N1CCN(C(=O)c2ccco2)CC1`, the AC50 was over 100 µM in assay [1] and > 100 µM (inactive) in assay [2]. Regarding `Cc1cc(SCC(=O)OCC(=O)NCC2CCCO2)c(C)cc1Br` (configuration not stated), the AC50 is over 100 µM in assay [1] and > 100 µM (inactive) in assay [2]. On the same counts, the results for `COc1ccc(OC2C(=O)N(Cc3ccc4c(c3)OCO4)C2c2cccs2)cc1` (configuration not stated) are 11.5 µM and > 100 µM (inactive).

For the compound `CCn1cc(Br)c(C(=O)Nc2ccc(C(=O)OC(C)C)cc2)n1`, the figures for the AC50 in assay [1], in assay [2] and in assay [2] (setting [3]) were 52 µM, > 100 µM (inactive) and 47.3 µM, respectively. For the compound `O=C(Nc1ccccc1N1CCOCC1)C1CCCCN1S(=O)(=O)c1ccccc1` (configuration not stated), the values for the half-maximal activity concentration (AC50) in assay [1] and in assay [2] (setting [3]) were 49.8 µM and over 100 µM, respectively. Regarding `COc1cc(NC(=O)c2ccc(Cl)cc2)c(OC)cc1NC(=O)CN1CCCCC1`, the AC50 was over 100 µM in assay [1], > 100 µM (inactive) in assay [2] and over 100 µM in assay [2] (setting [3]). Regarding `Nc1nc2ccccc2n1CCOc1ccc(F)cc1`, the AC50 in assay [1] is under 0.6 µM; in assay [2] it was > 100 µM (inactive). On the same counts, the results for `O=C(NCc1ccccc1)c1ccc(-c2cn[nH]c2)c2ccoc12` are over 100 µM and > 100 µM (inactive). With `CSc1nnnn1-c1ccc(Cl)cc1`, in assay [1], the AC50 is over 100 µM. On to `CCOC(=O)c1csc(NC(=O)CC2CCCC2)n1`, for which the AC50 in assay [1] was 51.7 µM; in assay [2], > 100 µM (inactive). With `CN(C(=O)COc1ccccc1C(=O)NCCOc1ccccc1)c1ccccc1`, the AC50 in assay [1] was 44.2 µM; in assay [2], > 100 µM (inactive).

Turning to `COC(=O)c1nc(-c2ccc(C)cc2)[nH]c1C(C)(C)C`, the AC50 in assay [1] was over 100 µM. Consider `CCOC(=O)[C@]12Cc3ccccc3[C@H]1N(C)C(=O)c1cc(OC)ccc12`, for which the AC50 in assay [1] was 48.7 µM; in assay [2], > 100 µM (inactive); in assay [2] (setting [3]) it was 34.2 µM.

`Fc1ccccc1C1CCN(Cc2nc(COc3ccccc3)no2)C1` (configuration not stated): in assay [1], the AC50 was over 100 µM.

Compound `COc1ccc(-c2cc(C(=O)O)nc3ccc4ccccc4c23)cc1OC` yielded a half-maximal activity concentration (AC50) in assay [1] of over 100 µM. Consider `Cc1ccccc1NS(=O)(=O)c1cc(C(=O)NCCC2=CCCCC2)ccc1C`, for which the AC50 in assay [1] and in assay [2] (setting [3]) was over 100 µM each time. For `O=C1c2ccccc2NC(c2ccc(-c3cccc([N+](=O)[O-])c3)o2)N1O` (configuration not stated), the half-maximal activity concentration (AC50) was 7.43 µM in assay [1] and > 100 µM (inactive) in assay [2].

Compound `CN(c1ccc(C(=O)NCc2cccs2)cc1)S(=O)(=O)c1ccccc1` came in with an AC50 in assay [1] of over 100 µM.

As to `Cc1cc(C(=O)NCCC2=CCCCC2)ccc1[N+](=O)[O-]`, the AC50 in assay [2] is > 100 µM (inactive). Still for that read-out and setting: the same measure for `O=C(O)c1ccc(Oc2ccc([N+](=O)[O-])cc2)c([N+](=O)[O-])c1`: > 100 µM (inactive). Regarding `CC(=O)NCCOc1nc(N2CCCCC2)nc(N2CCCCC2)n1`, the AC50 in assay [2] is > 100 µM (inactive); in assay [2] (setting [3]), over 100 µM. In assay [2] (setting [3]), `Fc1ccc(-c2nc3ccc(Cl)cn3c2Cc2cccc(Cl)c2)cc1` gave a half-maximal activity concentration (AC50) of over 100 µM. In turn, `Cc1ccc(S(=O)(=O)N2CCCCC2C(=O)N2CCN(c3ccccc3F)CC2)cc1` (configuration not stated) had a concentration at half-maximal activity (AC50) in assay [2] (setting [3]) of over 100 µM. In the case of `Nc1nc(=S)ss1`, the half-maximal activity concentration (AC50) was under 0.6 µM in assay [1], > 100 µM (inactive) in assay [2] and over 100 µM in assay [2] (setting [3]).

As to `Nc1ncncc1-c1ccc2ccccc2c1`, the AC50 in assay [1] was over 100 µM; in assay [2], > 100 µM (inactive). Turning to `COC(=O)c1ccc(OS(=O)(=O)c2ccc(NC(C)=O)cc2)cc1`, the AC50 in assay [2] is > 100 µM (inactive); in assay [2] (setting [3]), over 100 µM.

For the compound `CSc1nc2nc3c(cc2c(=O)n1-c1ccccc1C)CCCC3`, the AC50 was > 100 µM (inactive) in assay [2] and over 100 µM in assay [2] (setting [3]). On to `FC(F)(F)c1ccc(Cl)c(-n2c(Cc3cccs3)n[nH]c2=S)c1`, for which the AC50 in assay [2] was > 100 µM (inactive). As to `O=C(COc1ccccc1Cl)Nc1nc(-c2ccncc2)cs1`, the AC50 in assay [2] was > 100 µM (inactive). `COc1cc(NC(=O)C(c2ccccc2)c2ccccc2)c(C(=O)O)cc1OC`: the AC50 in assay [1] was 22.3 µM; in assay [2] it was > 100 µM (inactive).
